Experimental data: patent US12116368B2, “Pyrrolo[2,3-d]pyrimidine tosylate salt, crystalline form thereof and manufacturing process and intermediates thereto” (Pfizer Inc., priority 2018, dated 2024)
Values joined by “and” are separate entries in the source; they are usually repeats but may differ in a detail not shown here. Equal values may be shown once.

Test: Solid state stability under accelerated stability conditions (70° C./75% RH, one week), monitoring purity
Type: physicochemical
Conditions: for Initial Purity: API purity before the accelerated stability stress test; for Final Purity (post stress test): after one week at 70° C./75% RH, solid state; for Recommended storage condition for use as an API: assigned from the accelerated stability result; for Solid state stability compared with amorphous free base and malonate salt: accelerated stability conditions 70° C./75% RH, one week
Protocol: The solid state stability is monitored using accelerated stability conditions (70° C./75% RH) for one week and then monitoring appearance, purity and form change. These accelerated conditions are used to assign an initial use period for the API.

Initial Purity | Final Purity (post stress test) | Initial Purity (listed as malonate salt) | Final Purity (post stress test) (listed as malonate salt) | Solid state stability compared with amorphous free base and malonate salt | Compound | Recommended storage condition for use as an API
99.3% | 41.3& % | – | – | – | C=CC(=O)N1C[C@H](Nc2ncnc3[nH]ccc23)CC[C@@H]1C [Amorphous Free base, 1-((2S,5R)-5-((7H-Pyrrolo[2,3-d]pyrimidin-4-yl)amino)-2-methylpiperidin-1-yl)prop-2-en-1-one] | –
99.5% | 81.6% | 99.5% | 81.6% | – | C=CC(=O)N1C[C@H](Nc2ncnc3[nH]ccc23)CC[C@@H]1C.O=C(O)CC(=O)O [Malonate salt, 1-((2S,5R)-5-((7H-Pyrrolo[2,3-d]pyrimidin-4-yl)amino)-2-methyl-piperidin-1-yl)prop-2-en-1-one Malonic Acid Salt (Form 1)] | would require refrigeration
99.6% | 99.5% | – | – | significantly improved | C=CC(=O)N1C[C@H](Nc2ncnc3[nH]ccc23)CC[C@@H]1C.O=P(O)(O)O [Phosphate salt, 1-((2S,5R)-5-((7H-Pyrrolo[2,3-d]pyrimidin-4-yl)amino)-2-meth-ylpiperidin-1-yl)prop-2-en-1-one Phosphoric Acid Salt (Form A)] | –
99.1% and 99.6% | 97.7% and 99.6% | – | – | significantly improved | C=CC(=O)N1C[C@H](Nc2ncnc3[nH]ccc23)CC[C@@H]1C.Cc1ccc(S(=O)(=O)O)cc1 [Tosylate salt, 1-((2S,5R)-5-((7H-Pyrrolo[2,3-d]pyrimidin-4-yl)amino)-2-meth-ylpiperidin-1-yl)prop-2-en-1-one p-Toluenesulfonic Acid Salt (Form 1)] | would not require refrigerated storage conditions
